Data reported in the supplement of paper PMC10307832.

What was measured:
Assay in all cases: relative viability (nuclei count vs DMSO), 5 days (fraction); higher = more cells survive
201T = tested on: 201T
In short: (§1)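 Medians of duplicate plates are given as relative viability. That measure is the nuclei count in treated wells divided by the count in vehicle wells. Counts were taken on 4× images of lung cancer cell lines in 1536-well plates, 5 days after pin-tool dosing the day after seeding with one drug alone or a fixed anchor-drug dose plus five library-drug doses (not always all listed) in √10 steps.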

COR-L 105 = tested on: COR-L 105
In short: as §1

COR-L23 = tested on: COR-L23
In short: as §1

EMC-BAC-2 = tested on: EMC-BAC-2
In short: as §1

HCC-15 = tested on: HCC-15
In short: as §1

HCC-366 = tested on: HCC-366
In short: as §1

LC-2-ad = tested on: LC-2-ad
In short: as §1

NCI-H1395 = tested on: NCI-H1395
In short: as §1

NCI-H1437 = tested on: NCI-H1437
In short: as §1

NCI-H1755 = tested on: NCI-H1755
In short: as §1

NCI-H1792 = tested on: NCI-H1792
In short: as §1

NCI-H1793 = tested on: NCI-H1793
In short: as §1

NCI-H1915 = tested on: NCI-H1915
In short: as §1

NCI-H2009 = tested on: NCI-H2009
In short: as §1

NCI-H2023 = tested on: NCI-H2023
In short: as §1

NCI-H2342 = tested on: NCI-H2342
In short: as §1

NCI-H2347 = tested on: NCI-H2347
In short: as §1

NCI-H23 = tested on: NCI-H23
In short: as §1

NCI-H358 = tested on: NCI-H358
In short: as §1

NCI-H650 = tested on: NCI-H650
In short: as §1

PC-14 = tested on: PC-14
In short: as §1

SK-MES-1 = tested on: SK-MES-1
In short: as §1

Cc1csc(=NC2CCCCC2)n1/N=C/c1ccc(O)c(O)c1O [MIM1] + O=C(c1cc(Cc2n[nH]c(=O)c3ccccc23)ccc1F)N1CCN(C(=O)C2CC2)CC1 [Olaparib] (partner 8 µM)
relative viability (201T; first compound 0.2 µM): 0.833 | relative viability (201T; first compound 0.6325 µM): 0.863 | relative viability (201T; first compound 2 µM): 0.831 | relative viability (201T; first compound 6.325 µM): 0.415 | relative viability (201T; first compound 20 µM): 0.396 | relative viability (COR-L 105; first compound 0.2 µM): 0.694 | relative viability (COR-L 105; first compound 0.6325 µM): 0.673 | relative viability (COR-L 105; first compound 2 µM): 0.63 | relative viability (COR-L 105; first compound 6.325 µM): 0.554 | relative viability (COR-L 105; first compound 20 µM): 0.564 | relative viability (COR-L23; first compound 0.2 µM): 0.29 | relative viability (COR-L23; first compound 0.6325 µM): 0.365 | relative viability (COR-L23; first compound 2 µM): 0.287 | relative viability (COR-L23; first compound 6.325 µM): 0.224 | relative viability (COR-L23; first compound 20 µM): 0.164 | relative viability (EMC-BAC-2; first compound 0.2 µM): 0.494 | relative viability (EMC-BAC-2; first compound 2 µM): 0.433 | relative viability (EMC-BAC-2; first compound 6.325 µM): 0.378 | relative viability (EMC-BAC-2; first compound 20 µM): 0.212 | relative viability (HCC-15; first compound 0.2 µM): 0.717 | relative viability (HCC-15; first compound 0.6325 µM): 0.713 | relative viability (HCC-15; first compound 2 µM): 0.749 | relative viability (HCC-15; first compound 6.325 µM): 0.39 | relative viability (HCC-15; first compound 20 µM): 0.115 | relative viability (HCC-366; first compound 0.2 µM): 0.351 | relative viability (HCC-366; first compound 2 µM): 0.249 | relative viability (HCC-366; first compound 6.325 µM): 0.0373 | relative viability (HCC-366; first compound 20 µM): 0.0269 | relative viability (LC-2-ad; first compound 0.2 µM): 0.616 | relative viability (LC-2-ad; first compound 0.6325 µM): 0.683 | relative viability (LC-2-ad; first compound 2 µM): 0.665 | relative viability (LC-2-ad; first compound 6.325 µM): 0.303 | relative viability (LC-2-ad; first compound 20 µM): 0.211 | relative viability (NCI-H1395; first compound 0.2 µM): 0.454 | relative viability (NCI-H1395; first compound 0.6325 µM): 0.485 | relative viability (NCI-H1395; first compound 2 µM): 0.414 | relative viability (NCI-H1395; first compound 6.325 µM): 0.436 | relative viability (NCI-H1395; first compound 20 µM): 0.346 | relative viability (NCI-H1437; first compound 0.2 µM): 0.615 | relative viability (NCI-H1437; first compound 0.6325 µM): 0.644 | relative viability (NCI-H1437; first compound 2 µM): 0.58 | relative viability (NCI-H1437; first compound 6.325 µM): 0.192 | relative viability (NCI-H1437; first compound 20 µM): 0.206 | relative viability (NCI-H1755; first compound 0.2 µM): 0.857 | relative viability (NCI-H1755; first compound 0.6325 µM): 0.84 | relative viability (NCI-H1755; first compound 2 µM): 0.94 | relative viability (NCI-H1755; first compound 6.325 µM): 0.699 | relative viability (NCI-H1755; first compound 20 µM): 0.262 | relative viability (NCI-H1792; first compound 0.2 µM): 0.469 | relative viability (NCI-H1792; first compound 0.6325 µM): 0.368 | relative viability (NCI-H1792; first compound 2 µM): 0.454 | relative viability (NCI-H1792; first compound 6.325 µM): 0.279 | relative viability (NCI-H1792; first compound 20 µM): 0.398 | relative viability (NCI-H1793; first compound 0.2 µM): 0.942 | relative viability (NCI-H1793; first compound 2 µM): 0.899 | relative viability (NCI-H1793; first compound 6.325 µM): 0.686 | relative viability (NCI-H1793; first compound 20 µM): 0.839 | relative viability (NCI-H1915; first compound 0.2 µM): 0.255 | relative viability (NCI-H1915; first compound 0.6325 µM): 0.248 | relative viability (NCI-H1915; first compound 2 µM): 0.236 | relative viability (NCI-H1915; first compound 6.325 µM): 0.203 | relative viability (NCI-H1915; first compound 20 µM): 0.133 | relative viability (NCI-H2009; first compound 0.2 µM): 0.662 | relative viability (NCI-H2009; first compound 0.6325 µM): 0.655 | relative viability (NCI-H2009; first compound 2 µM): 0.723 | relative viability (NCI-H2009; first compound 6.325 µM): 0.504 | relative viability (NCI-H2009; first compound 20 µM): 0.482 | relative viability (NCI-H2023; first compound 0.2 µM): 0.501 | relative viability (NCI-H2023; first compound 0.6325 µM): 0.496 | relative viability (NCI-H2023; first compound 2 µM): 0.43 | relative viability (NCI-H2023; first compound 6.325 µM): 0.255 | relative viability (NCI-H2023; first compound 20 µM): 0.0641 | relative viability (NCI-H2342; first compound 0.2 µM): 0.432 | relative viability (NCI-H2342; first compound 0.6325 µM): 0.386 | relative viability (NCI-H2342; first compound 2 µM): 0.42 | relative viability (NCI-H2342; first compound 6.325 µM): 0.395 | relative viability (NCI-H2342; first compound 20 µM): 0.571 | relative viability (NCI-H2347; first compound 0.2 µM): 0.525 | relative viability (NCI-H2347; first compound 0.6325 µM): 0.559 | relative viability (NCI-H2347; first compound 2 µM): 0.653 | relative viability (NCI-H2347; first compound 6.325 µM): 0.508 | relative viability (NCI-H2347; first compound 20 µM): 0.469 | relative viability (NCI-H23; first compound 0.2 µM): 0.302 | relative viability (NCI-H23; first compound 0.6325 µM): 0.266 | relative viability (NCI-H23; first compound 2 µM): 0.215 | relative viability (NCI-H23; first compound 6.325 µM): 0.111 | relative viability (NCI-H23; first compound 20 µM): 0.13 | relative viability (NCI-H358; first compound 0.2 µM): 0.558 | relative viability (NCI-H358; first compound 0.6325 µM): 0.533 | relative viability (NCI-H358; first compound 2 µM): 0.516 | relative viability (NCI-H358; first compound 6.325 µM): 0.379 | relative viability (NCI-H358; first compound 20 µM): 0.123 | relative viability (NCI-H650; first compound 0.2 µM): 0.421 | relative viability (NCI-H650; first compound 0.6325 µM): 0.364 | relative viability (NCI-H650; first compound 2 µM): 0.381 | relative viability (NCI-H650; first compound 6.325 µM): 0.357 | relative viability (NCI-H650; first compound 20 µM): 0.127 | relative viability (PC-14; first compound 0.2 µM): 0.276 | relative viability (PC-14; first compound 0.6325 µM): 0.283 | relative viability (PC-14; first compound 2 µM): 0.228 | relative viability (PC-14; first compound 6.325 µM): 0.232 | relative viability (PC-14; first compound 20 µM): 0.0784 | relative viability (SK-MES-1; first compound 0.2 µM): 0.743 | relative viability (SK-MES-1; first compound 0.6325 µM): 0.657 | relative viability (SK-MES-1; first compound 2 µM): 0.548 | relative viability (SK-MES-1; first compound 6.325 µM): 0.259 | relative viability (SK-MES-1; first compound 20 µM): 0.108
